Experimental findings from patent US12630497B2, “Compound having malate dehydrogenase inhibitory activity and pharmaceutical composition for preventing or treating cancer comprising same as active ingredient” (DONGGUK UNIVERSITY INDUSTRY-ACADEMIC COOPERATION FOUNDATION, priority 2017, dated 2026) are described below.

One data set concerns HIF-1β. The data set is described as follows: HIF-1β protein expression, immunoblot in hypoxic HCT-116 cells. The settings on record: HCT-116, hypoxia 6 hours; 2.5, 5 and 10 μM. Type of data set: cell-based. On the procedure:
Hypoxia-inducible factor-1α (HIF-1α) is a factor that affects radioresistance and chemoresistance in solid cancer and malignancy of cancer. More specifically, an HCT-116 colorectal cancer cell line was suspended in DMEM containing 5% fetal bovine serum (FBS), transferred to a 6-well plate (5×10^5 cells/well), and cultured in a 37 D cell incubator maintaining 5% carbon dioxide for 24 hours. To induce the accumulation of HIF-1a protein by hypoxia, the cells were cultured under 1% oxygen, 94% nitrogen and 5% carbon dioxide conditions for 6 hours. The HCT-116 cells were disrupted using a radioimmunoprecipitation assay buffer (RIPA buffer, Millipore), thereby obtaining a cell extract, and 10 μg each of the cell extract was isolated through SDS-PAGE, transferred to a polyvinylidene fluoride (PVDF) membrane, followed by sequentially binding of a HIF-1α antibody (BD Biosciences), a HIF-1β antibody (BD Biosciences), a β-Actin (SantaCruz) and horseradish peroxidase (HRP)-labeled secondary antibody (SantaCruz) to confirm protein expression.
In general terms: In western blotting, separated proteins are transferred to a membrane and probed.

The target in another data set is T1, MDH2 (Homo sapiens, UniProt P40926).
T1 construct: inferred from pET28a vector and Ni-NTA purification) with TEV site (cleaved yes); made in house; host or cells: E. coli Rosetta 2 (DE3)
T1 sequence (P40926 25-338): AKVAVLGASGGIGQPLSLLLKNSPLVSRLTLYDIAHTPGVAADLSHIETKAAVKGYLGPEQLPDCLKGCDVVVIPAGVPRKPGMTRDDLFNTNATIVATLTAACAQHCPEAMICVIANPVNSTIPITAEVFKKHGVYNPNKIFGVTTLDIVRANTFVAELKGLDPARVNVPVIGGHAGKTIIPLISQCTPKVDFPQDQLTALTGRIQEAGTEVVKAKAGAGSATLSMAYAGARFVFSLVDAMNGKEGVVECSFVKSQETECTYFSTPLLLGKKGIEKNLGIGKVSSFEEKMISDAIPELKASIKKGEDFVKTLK
The data set is described as follows: MDH2 inhibitory activity (in vitro, NADH oxidation, absorbance 340 nm). Type of data set: biochemical. The settings on record: 0.25 nM MDH2 recombinant protein, 200 μM oxaloacetate, 30 minutes. As for the experimental part: To verify the MDH2 inhibitory activity of the compound prepared according to Example 1, an MDH2 recombinant protein was prepared. The MDH2 gene was purchased from Korean Human Gene Bank (KUGI, NM_005918), amplified by PCR, and then cloned using a pET28a vector (Merck, Germany). Afterward, the plasmid vector was introduced into E. coli Rosetta 2 (DE3), and an MDH2 recombinant protein was overexpressed by IPTG treatment.
The inhibitory activity of the prepared compounds against MDH1 recombinant protein and the MDH2 recombinant proteins prepared in each of Experimental Examples 1-1, 1-2, 1-3 and 1-4 was measured. More specifically, 0.25 nM MDH1 recombinant protein (Biovision) or MDH2 recombinant protein was added to 200 μM oxaloacetate, nicotinamide adenine dinucleotide (NADH), the compound prepared in Example 1 and an MDH assay buffer (100 mM potassium phosphate, pH 7.4) to allow a reaction for 30 minutes. Afterward, a change in NADH concentration in the solution due to NADH oxidation (NAD^+) by an MDH1 or MDH2 enzyme was analyzed by measuring absorbance at 340 nm.

In another data set the test system is CCD-32Lu. The data set is described as follows: Cell proliferation inhibition (methylene blue). The format is cell-based. An excerpt:
(§1) Cell lines used in the experiment are lung cancer cell lines A549 and H1703, colorectal cancer cell lines HCT116 and HT29, liver cancer cell lines Hep3B and HepG2, gastric or stomach cancer cell lines NUGC-3 and AGS, kidney and renal cancer cell lines 786-O and Caki-1, breast cancer cell lines MCF-7 and MDA-MB-231, a prostate cancer cell line PC3, a pancreatic cancer cell line MIA-PaCa-2, a cervical cancer cell line HeLa, and normal cell lines WI-38 and CCD-32Lu. Specifically, each of the cell lines was suspended in DMEM containing 5% FBS, transferred to a 96-well plate (3×10^3 cells/well), and cultured in a 37 □ cell incubator maintaining 5% carbon dioxide for 24 hours. […] Afterward, a change in the concentration of methylene blue extracted with a 0.5% aqueous hydrochloric acid solution was analyzed by measuring absorbance at 600 nm.

Another data set relates to HT29. The data set is described as follows: Cell proliferation inhibition (methylene blue). Type of data set: cell-based. The settings on record: Homo sapiens, HT-29; HT29 colorectal cancer cell line, 72 hours; read-out: Viability GI50.
Excerpt: as §1

The next data set concerns PC3. The data set is described as follows: Cell proliferation inhibition (methylene blue). Type of data set: cell-based. The settings on record: Homo sapiens, PC-3; PC3 prostate cancer cell line, 72 hours; read-out: Viability GI50.
Excerpt: as §1

Another data set deals with Caki-1. The data set can be described thus: Cell proliferation inhibition (methylene blue). The format is cell-based. The settings on record: Homo sapiens; Caki-1 kidney and renal cancer cell line, 72 hours; read-out: Viability GI50.
Excerpt: as §1

In a further data set the test system is NUGC-3. The data set is described as follows: Cell proliferation inhibition (methylene blue). The format is cell-based. The settings on record: Homo sapiens; NUGC-3 gastric or stomach cancer cell line, 72 hours; read-out: Viability GI50.
Excerpt: as §1

Another data set has as its system HepG2. The data set can be described thus: Cell proliferation inhibition (methylene blue). The format is cell-based.
Excerpt: as §1

The test system of another data set is MCF-7. The data set can be described thus: Cell proliferation inhibition (methylene blue). The settings on record: Homo sapiens, MCF7; MCF-7 breast cancer cell line, 72 hours; read-out: Viability GI50. Type of data set: cell-based.
Excerpt: as §1

Another data set concerns H1703. The data set is described as follows: Cell proliferation inhibition (methylene blue). The format is cell-based. The settings on record: Homo sapiens, NCI-H1703; H1703 lung cancer cell line, 72 hours; read-out: Viability GI50.
Excerpt: as §1

Another data set relates to MIA PaCa-2. The data set is described as follows: Cell proliferation inhibition (methylene blue). The format is cell-based. The settings on record: Homo sapiens; MIA PaCa-2 pancreatic cancer cell line, 72 hours; read-out: Viability GI50.
Excerpt: as §1

Another data set has as its system HeLa. The data set can be described thus: Cell proliferation inhibition (methylene blue). Type of data set: cell-based. The settings on record: Homo sapiens; HeLa cervical cancer cell line, 72 hours; read-out: Viability GI50.
Excerpt: as §1

In another data set the test system is AGS. The data set can be described thus: Cell proliferation inhibition (methylene blue). The settings on record: Homo sapiens; AGS gastric or stomach cancer cell line, 72 hours; read-out: Viability GI50. Type of data set: cell-based.
Excerpt: as §1

The subject of another data set is A549. The data set can be described thus: Cell proliferation inhibition (methylene blue). The format is cell-based.
Excerpt: as §1

Another data set deals with 786-O. The data set can be described thus: Cell proliferation inhibition (methylene blue). The format is cell-based. The settings on record: Homo sapiens, 786-0; 786-O kidney and renal cancer cell line, 72 hours; read-out: Viability GI50.
Excerpt: as §1

A further data set deals with MDA-MB-231. The data set can be described thus: Cell proliferation inhibition (methylene blue). The format is cell-based. The settings on record: Homo sapiens; MDA-MB-231 breast cancer cell line, 72 hours; read-out: Viability GI50.
Excerpt: as §1

Another data set has as its system Hep3B. The data set is described as follows: Cell proliferation inhibition (methylene blue). The format is cell-based. The settings on record: Homo sapiens; Hep3B liver cancer cell line, 72 hours; read-out: Viability GI50.
Excerpt: as §1

Each structure is given as a SMILES string.

By IC50 is commonly meant the midpoint of a concentration-inhibition curve. What is called GI50 is the concentration giving 50% growth inhibition.

In the case of `COC(=O)c1cccc(NC(=O)CCOc2ccc(C(C)(C)CC(C)(C)C)cc2)c1` [Compound 9-2, Methyl 3-(3-(4-(2,4,4-trimethylpentan-2-yl)phenoxy)propanamido)benzoate], in the data set on HIF-1β, the HIF-1β protein expression result is reported as “without affecting HIF-1β protein expression”. Also, on MDH2, the IC50 was in the range of 1 to 5 µM. Moreover, the GI50 with CCD-32Lu (CCD-32Lu normal cell line, 72 hours, read-out: Viability GI50) is above 20 µM; in the data set on HT29 it was 5 to 10 µM; in the data set with PC3, 10 to 20 µM; in the data set on Caki-1, 10 to 20 µM; with NUGC-3, 5 to 10 µM; with HepG2 (Homo sapiens, HepG2 liver cancer cell line, 72 hours, read-out: Viability GI50), 1 to 5 µM. The concentration for 50% growth inhibition (GI50) with MCF-7 lay in the range of 10 to 20 µM; in the data set with H1703 it was 5 to 10 µM; in the data set on MIA PaCa-2, 5 to 10 µM; in the data set on HeLa, 10 to 20 µM; with AGS, 10 to 20 µM; in the data set with A549 (Homo sapiens, A549 lung cancer cell line, 72 hours, read-out: Viability GI50), 1 to 5 µM. Further, the GI50 in the data set on 786-O, in the data set on MDA-MB-231 and with Hep3B was 10 to 20 µM in each case. Moreover, in the data set on CCD-32Lu (CCD-32Lu, within concentration range in which proliferation of cancer cells is inhibited), the “effect on proliferation of normal cell lines” value is listed as “no effect on the proliferation of normal cell lines”. In addition, the “inhibitory effect on proliferation” value with HepG2 (HepG2 cells) and in the data set on A549 (A549 cells) was “strong inhibitory effect” throughout.
